Source: patent US7335635B2, “14-3-3 binding molecules as sensitizers for anticancer therapies” (Emory University, priority 2001, dated 2008)
One block for each molecule: values may come before it.

What was measured:
caspase 3 = assay: Caspase 3 activity in cell lysates (pNA release from Ac-DEVD-pNA); assay type: cell-based; conditions: FIG. 10a
Experimental: Cos-7 cells were lysed 12 hours after transfection with various amounts of DNA coding for EYFP-difopein. Equal amounts of lysates were assayed for the ability to liberate p-nitroaniline (pNA) from the caspase 3 substrate Ac-DEVD-pNA. […] In another study, Cos-7 cells were assayed as in FIG. 5, except that they were treated with 50 μM of the pan-caspase inhibitor zVAD-fink or vehicle immediately prior to transfection (FIG. 10b).

14-3-3ζ/ASK1 = biological target: T1, 14-3-3ζ/ASK1 (Bos taurus, UniProt P63103); assay: Peptide inhibition of [35S]-ASK1 binding to immobilized His-14-3-3ζ; conditions: FIG. 1
T1 sequence (P63103 1-245): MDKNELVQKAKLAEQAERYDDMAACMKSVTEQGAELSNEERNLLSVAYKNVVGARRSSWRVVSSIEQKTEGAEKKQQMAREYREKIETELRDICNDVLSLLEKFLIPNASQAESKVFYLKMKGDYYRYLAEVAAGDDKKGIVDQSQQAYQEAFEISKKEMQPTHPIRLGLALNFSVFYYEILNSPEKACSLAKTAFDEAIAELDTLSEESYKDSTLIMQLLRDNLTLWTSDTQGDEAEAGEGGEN
Experimental: To determine the effectiveness of various 14-3-3 antagonist, including R18, S-Raf259, and pS-Raf-259, the peptide antagonists were preincubated with immobilized His-14-3-3ζ before adding [^35S]-labeled ASK1. After washing, 14-3-3-bound ASK1 was quantified by PhosphorImager. The percentage of ASK1 bound to 14-3-3 relative to peptide-free samples is plotted against increasing concentration of the test peptides (FIG. 1).

14-3-3ζ dimer = biological target: T2, 14-3-3ζ dimer (Bos taurus, UniProt P63103); assay: R18-Sepharose bead competition with Bad derived phosphopeptides for 14-3-3 binding; conditions: 100 nM 14-3-3ζ dimer; FIG. 2
T2 sequence (P63103 1-245): T1 sequence (P63103 1-245)
Experimental: R18 was covalently coupled to Sepharose beads. The beads were then incubated with 100 nM 14-3-3ζ dimer along with the indicated concentrations of synthetic phosphopeptides derived from Bad. pS136 contains a 14-3-3 binding site, while pS112 is a similar peptide incapable of binding 14-3-3. Unbound 14-3-3 was washed away from the beads and the remaining proteins were visualized by SDS-PAGE and sliver staining. […] See also, Masters et al. (2001) Molecular Pharmacology 60: 1325-1331, herein incorporated by reference.

COS-7 cells [1] = assay: Attachment based viability assay (lacZ marker, β-gal activity); assay type: cell-based; conditions: expression from transfected vector, FIG. 4, FIG. 8a
Experimental: R18 is placed under the control of the CMV promoter in a mammalian expression vector pCR3.1 (pSCM110). Cells expressing the control pcDNA3 along with a lacZ marker gave high β-gal activity that was set as 100% survival. […] The R18 effect was dose-dependent because increased R18 expression was correlated with decreased cell viability.
In FIG. 8a, Cos-7 cells were co-transfected with myc-tagged difopein or a control vector along with a lacZ reported gene. After approximately 48 hours floating cells were gently washed away and attached cells were lysed and assayed for β-galactosidase.

COS-7 cells [2] = assay: DNA content (sub G0) by propidium iodide flow cytometry; assay type: cell-based; conditions: for cell death (fraction of cells with sub G0 DNA content): 24 hours after transfection, FIG. 5
Experimental: The two acidic residues of R18 (Asp and Glu) which are involved in coordinating the basic cluster of 14-3-3 were changed to lysine. This peptide is not expected to bind 14-3-3, but it could retain interaction with other cellular partners if they do exist. Cos-7 cells were cotransfected with a farnesylated (EGFP[)] marker along with EYFP, EYFP-R18, or EYFP-R18 (D12K,E14K). After 24 hours, cells were fixed in ethanol and DNA was stained with propidium iodide. EGFP and PI signal intensities were measured on a FACScan flow cytometer (Becton Dickinson), and transfected cells were placed in various phases of the cell cycle based on their DNA content.
In yet another assay, (FIG. 8c) Cos-7 cells were transfected with EYFP or EYFP-difopein as indicated, and cell death was determined as in FIG. 5. Internucleosomal DNA cleavage, which is a commonly used marker of apoptosis, produces small fragments that can diffuse out of cells during ethanol fixation resulting in decreased signals being seen on staining for DNA (Sub-G0 DNA content). Therefore, the appearance of cell containing sub G0 levels of DNA indicates apoptotic cell death.

COS-7 cells [3] = assay: Cisplatin-induced cell death with R18 expression, viability assay; assay type: cell-based; conditions: myc-tagged R18, cisplatin added 12 hours after transfection, read about 36 hours later; FIG. 11a
Experimental: (§1) Inhibition of 14-3-3/ligand interactions may facilitate apoptotic cell death induced by cytotoxic agents. To test this possibility, the effects of expression of R18 and difopein on cisplatin-induced cell death was examined (FIG. 11). In FIG. 11a, Cos-7 cells were transfected with a lacZ marker gene along with myc-tagged R18 DNA (amount used shown as the fraction of total DNA). 12 hours after transfection, the indicated concentrations of cisplatin were added. Approximately 36 hours later the viability of the cells was determined as in FIG. 3 above. In FIG. 11b, HeLa cervical cancer cells were transfected with EYFP or EYFP-difopein as indicated. 24 hours later, 50 μM cisplatin or vehicle was added. After 24 hours of cisplatin treatment, the cells were assayed as in 2 above.

COS-7 cells [4] = assay: Annexin V phenotype of R18 induced cell death; assay type: cell-based; conditions: data not shown
14-3-3 proteins = conditions: cited from earlier work
14-3-3 = conditions: phosphorylation-independent interaction; cited from earlier work
14-3-3ζ/Raf-1 = biological target: T3, 14-3-3ζ/Raf-1 (Bos taurus, UniProt P63103); assay: Co-immunoprecipitation of FLAG-14-3-3ζ and endogenous Raf-1 in transfected HEK293 cells; assay type: cell-based; conditions: FIG. 3
T3 sequence (P63103 1-245): T1 sequence (P63103 1-245)
Excerpt: Difopein is a 62 amino acid polypeptide having 14-3-3 antagonist activity. The amino acid sequence of difopein is shown in SEQ ID NO:2 and comprises two R18 monomers (amino acids 6-25 and 37-56 of SEQ ID NO:2) separated by non-repeat linker sequences (amino acids 26-36 of SEQ ID NO:2). […] Specifically, HEK293 cells were transfected with DNA coding for FLAG-tagged 14-3-3ζ and either EYFP or EYFP-difopein as indicated. 14-3-3 was immunoprecipitated using anti-FLAG (M2; Sigma Chemical Co.). In the presence of EYFP, 14-3-3ζ was able to co-precipitate endogenous Raf-1. […] See also, Masters et al. (2001) Journal of Biological Chemistry 276: 45193-45200, herein incorporated by reference.

[5] = system: HeLa cervical cancer cells; assay: Cisplatin-induced cell death with EYFP-difopein expression; assay type: cell-based; conditions: 50 μM cisplatin for 24 hours, FIG. 11b
Experimental: as §1

COS-7 cells [6] = assay: Viability by microscopic examination of morphology of X-gal stained transfected cells; assay type: cell-based; conditions: about 24 hours post transfection; FIG. 8b
Experimental: In another assay, Cos-7 cells were cotransfected with a lacZ marker in addition to any EYFP-difopein fusion, EYFP alone, or empty vector. Approximately 24 hours post transfection, cells were fixed and transfected cells were identified by staining with X-gal. Viability of the transfected cells was determined by microscopic examination of cell morphology: live cells were flat, while dead cells were rounded up.

Molecule: Ac-DEVD-CHO [reference compound]
block of EYFP-difopein induced pNA release (caspase 3; Cos-7 lysates): completely blocked

Molecule: Pseudomonas aeruginosa exoenzyme S: exoenzyme S from Pseudomonas aeruginosa, a phosphorylation-independent 14-3-3 ligand
affinity for the amphipathic groove of 14-3-3 (14-3-3): high affinity

Molecule: R18 (D12K, E14K): R18 with the two acidic residues (Asp and Glu) that coordinate the basic cluster of 14-3-3 changed to lysine (PHCVPRDLSWLKLKANMCLP; left off: large carriers)
cell death (fraction of cells with sub G0 DNA content) (COS-7 cells [2]): unable to induce cell death

B1: difopein: 62 amino acid polypeptide comprising two R18 monomers separated by a non-repeat linker sequence (protein)
chain: SADGAPHCVPRDLSWLDLEANMCLPGAAGLDSADGAPHCVPRDLSWLDLEANMCLPGAAGLE
modifications: difopein polypeptide sequence
binding to 14-3-3 in vivo (14-3-3ζ/Raf-1): can bind 14-3-3 in vivo | cell viability (β-gal activity) (COS-7 cells [1]): decreased β-gal activity | cell death compared with monomeric R18 (COS-7 cells [2]; EYFP-tagged constructs, FIG. 7): dramatically enhanced the cell death | effect on the cell cycle (DNA content distribution, sub G0 cells excluded) (COS-7 cells [2]; FIG. 8c, not shown): does not disrupt the cell cycle | sensitivity of induced cell death to constitutively active Akt (COS-7 cells [2]; co-expression of constitutively active Akt, FIG. 9): relatively insensitive to Akt expression | enhancement of cisplatin-induced cell death [5]: enhance the ability of an antineoplastic drug to kill cells

The next lines start with results.

inhibitory effect on 14-3-3ζ/ASK1 compared with pS-Raf-259 (14-3-3ζ/ASK1): stronger inhibitory affect | inhibition of the interaction of 14-3-3ζ with ASK1 (14-3-3ζ/ASK1; peptide preincubated with immobilized His-14-3-3ζ): potent inhibitory affect
Molecule: PHCVPRDLSWLDLEANMCLP [R18]
competition with Bad derived peptide for 14-3-3 binding (14-3-3ζ dimer): competes with a Bad derived peptide for 14-3-3 binding | cell viability (β-gal activity) (COS-7 cells [1]): drastically decreased the population of viable cells | cell death (fraction of cells with sub G0 DNA content) (COS-7 cells [2]): increase in the fraction of cells containing less than normal amounts of DNA | enhancement of cisplatin-induced cell death (COS-7 cells [3]): enhance the ability of an antineoplastic drug to kill cells | annexin V phenotype (COS-7 cells [4]): annexin V-positive phenotype | specificity for 14-3-3 proteins (14-3-3 proteins): high specificity | Kd (14-3-3 proteins; different isoforms of 14-3-3, similar affinity): 80 nM

co-precipitation of endogenous Raf-1 with 14-3-3ζ (14-3-3ζ/Raf-1; anti-FLAG immunoprecipitation): blocked co-precipitation of Raf-1
B2: EYFP-difopein: EYFP-difopein fusion expressed from transfected DNA (protein)
chain: B1 chain
modifications: left off: large carriers
notes: EYFP-difopein fusion expressed from transfected DNA
reduction of the live cell population (COS-7 cells [6]): about one-half | pNA release from caspase 3 substrate Ac-DEVD-pNA (caspase 3; Cos-7 lysates 12 hours after transfection): dose dependent increase in pNA release
